Test results published in US20240043400A1, “Octahydroisoquinolinyl Derivatives” (UCB Biopharma SRL, priority 2020, published 2024).

Key:
[1] = biological target: T1, human GABAA receptor α1β2 and γ2 subunits (Homo sapiens, UniProt P14867+P18507+P47870); experiment: Automated patch clamp studies on the GABAA receptor cells; assay type: cell-based; conditions: 15 μM GABA, Table B
T1 construct: expressed in transfected cells
Method: CHO-K1 cells stably expressing human GABAA receptor α1β2 and γ2 subunits were used. The cells were harvested using trypsin and maintained in serum-free medium at room temperature. The cells were washed and re-suspended in extracellular solution before testing.
Experiments on human GABAA (α1β2γ2) channels were conducted using an automated patch clamp assay (lonFlux™ HT). The external solution for recording GABAA currents was composed of sodium chloride 137 mM, potassium chloride 4 mM, calcium chloride 1.8 mM, magnesium chloride 1 mM, HEPES 10 mM, and glucose 10 mM. Both external and internal solutions were titrated with NaOH or KOH to obtain a pH of 7.35 and 7.3, respectively. The internal pipette solution contained potassium fluoride 70 mM, potassium chloride 60 mM, sodium chloride 70 mM, HEPES 5 mM, EGTA 5 mM, and Magnesium ATP 4 mM. The final concentration of vehicle used to dilute compounds was 0.33% DMSO in each well. Bicuculline (0.032 to 100 μM) was used as positive control inhibitor. GABA (15 μM) was used as agonist. All recordings were obtained from a holding potential of −60 mV.
The compound addition sequence was the following: one addition of the EC80 concentration of GABA was added to establish baseline response. Each concentration of compound was applied for 30 seconds followed by the addition of 15 μM GABA in the presence of the compound for 2 seconds. The process was repeated with the next ascending concentration of compound. Peak inward currents in response to the GABA additions in the presence of a single concentration of compound were measured. All compound data have been normalized to the baseline peak current induced by addition of 15 μM GABA for 2 seconds.

dopamine D1 receptor = biological target: T2, dopamine D1 receptor (Homo sapiens, UniProt P21728); experiment: cAMP HTRF potentiation assay (in the presence of dopamine); assay type: cell-based; conditions: potentiation of cAMP with [EC20] of dopamine (1.1 nM); LMtk (Ltk−) mouse fibroblast cells expressing the dopamine D1 receptor
T2 construct: host or cells: LMtk (Ltk-) mouse fibroblast cells, kept under Geneticin
Method: The potentiation assay measures the ability of compounds to increase the levels of cAMP produced by a low-threshold concentration of dopamine. The concentration of dopamine used ([EC20]) is designed to produce 20% stimulation compared to the maximal response (100%) seen with increasing the concentration of dopamine. To measure this potentiation we incubate increasing concentrations of the compound with the [EC20] of dopamine and measure the potentiation as increases in cAMP production. The pEC50 of a compound is the −log 10 of the concentration of the compound which produces 50% of the potentiation of the cAMP levels and the Erel is the relative efficacy, defined as the maximal % potentiation produced by the compound compared to the maximal response produced by increasing concentrations of dopamine (Erel of 1=dopamine maximum response).
Cells were cultured at 37° C. in a humidified atmosphere of 5% CO2. Cells were grown in DMEM-F12+GlutaMAX™-1 medium (GIBCO®, Invitrogen, Merelbeke, Belgium) containing 10% fetal bovine serum (BioWhittaker®, Lonza, Verviers, Belgium), 400 μg/mL Geneticin (GIBCO®), 100 IU/mL Penicillin and 100 IU/mL Streptomycin (Pen-Strep solution, BioWhittaker®).
The measurement of changes in intracellular cyclic adenosinemonophopshpate (cAMP) was determined using the HTRF cAMP dynamic assay kit from CisBio (Codolet, France). Using homogenous time-resolved fluoresence technology, the assay is based on competition between native cAMP produced by cells and cAMP labelled with the dye d2. The tracer binding is determined by an anti-cAMP antibody labeled with cryptate. The effects of the compound alone (agonism) was determined by performing the assay in the absence of dopamine, whilst the effect of the compound as a positive allosteric modulator (PAM) was determined in the presence of an EC20 concentration of dopamine. Cells (20,000 per well) are incubated in 384 plates for 1 h at rt in a final volume of 20 μLHBSS (Lonza, with calcium, magnesium and HEPES buffer 20 mM, pH 7.4) containing: isobutyl methylxanthine (Sigma, 0.1 mM final), varying concentrations of test compound (typically 10^−9.5 M to 10^−4.5 M) in the presence and absence of dopamine (1.1 nM final). The reaction is then terminated and the cells lysed by adding the d2 detection reagent in lysis buffer (10 μL) and the cryptate reagent in lysis buffer (10 μL) according to manufacturer's instructions. This is then incubated for a further 60 min at rt and changes in HTRF fluorescent emission ratio determined according to manufacturer's instructions using an Envision plate reader (Perkin Elmer, Zaventem, Belgium) with laser excitation. All incubations were performed in duplicate and results were compared to a concentration-effect curve to dopamine. (10^−11 M to 10^−6 M).
Data was analyzed using Excel and PRISM (GraphPad Software) to obtain pEC50 and Erel using the 4-parameter logistic equation (DeLean et al, 1978) where Erel is the fitted maximal response of the test compound minus basal expressed as a percentage relative to that obtained with dopamine which was defined as 100%.

CYP3A4 = biological target: T3, CYP3A4 (Homo sapiens, UniProt P08684); experiment: In vitro assessment of CYP3A4 inhibition potential using cryopreserved human microsomes; assay type: in vitro ADME; conditions: human, cryopreserved human microsomes (pooled donors), probe midazolam 2.5 μM (1-hydroxymidazolam formation), 20 μM compound, human microsomes 0.25 mg/ml, Table C
T3 construct: cryopreserved human microsomes (pooled donors); from tissue
Method: The objective of the human microsome assay is to characterize the inhibition potential of Compound of formula (I) by measuring the CYP3A4 activities after its co-incubation with midazolam, a specific CYP3A4 substrate.
To this aim, cryopreserved human microsomes (pooled donors) are divided on a 48 well collagen coated plate so that the final concentration is 0.25 mg/ml. The UCB compound is then added in the wells at 20 μM concentration in duplicate. After 30 min incubation, midazolam is added at 2.5 μM concentration. After 15 min, an aliquot is removed and placed into an equal volume of methanol containing internal standard. The samples are centrifuged at 2500 rpm at 4° C. for 20 min. An aliquot of supernatant is diluted with deionised water and levels of 1-hydroxymidazolam is quantified using generic LC MS/MS methods.
The concentrations are compared to those obtained after midazolam incubation at the same concentration but without UCB compound pre-incubation. The results are expressed as % of inhibition.

T2 sequence (P21728 whole entry): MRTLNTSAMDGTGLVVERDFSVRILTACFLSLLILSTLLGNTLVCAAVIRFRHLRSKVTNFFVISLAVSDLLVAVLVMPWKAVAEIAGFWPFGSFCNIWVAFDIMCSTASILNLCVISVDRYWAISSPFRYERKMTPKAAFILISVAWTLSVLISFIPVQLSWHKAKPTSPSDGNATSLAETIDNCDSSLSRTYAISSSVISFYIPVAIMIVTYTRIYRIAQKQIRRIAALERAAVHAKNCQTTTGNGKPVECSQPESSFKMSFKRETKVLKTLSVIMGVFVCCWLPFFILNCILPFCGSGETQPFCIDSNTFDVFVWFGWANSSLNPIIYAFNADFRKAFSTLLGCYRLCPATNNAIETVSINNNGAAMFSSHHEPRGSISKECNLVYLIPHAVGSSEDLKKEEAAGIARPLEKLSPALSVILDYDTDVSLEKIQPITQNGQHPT
T1 sequence (P14867 28-456): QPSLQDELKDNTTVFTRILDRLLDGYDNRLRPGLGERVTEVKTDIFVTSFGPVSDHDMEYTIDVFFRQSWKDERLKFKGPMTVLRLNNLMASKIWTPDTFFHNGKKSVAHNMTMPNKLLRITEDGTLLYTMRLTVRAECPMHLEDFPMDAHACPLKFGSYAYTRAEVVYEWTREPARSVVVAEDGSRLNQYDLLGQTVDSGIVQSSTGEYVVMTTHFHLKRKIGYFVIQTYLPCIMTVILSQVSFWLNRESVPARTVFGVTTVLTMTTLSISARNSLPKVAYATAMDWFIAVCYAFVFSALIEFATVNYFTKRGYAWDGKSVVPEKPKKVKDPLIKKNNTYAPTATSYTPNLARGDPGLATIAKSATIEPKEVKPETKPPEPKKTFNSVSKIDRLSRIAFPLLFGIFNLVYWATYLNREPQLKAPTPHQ
T1 sequence (P47870 25-512 limits assumed): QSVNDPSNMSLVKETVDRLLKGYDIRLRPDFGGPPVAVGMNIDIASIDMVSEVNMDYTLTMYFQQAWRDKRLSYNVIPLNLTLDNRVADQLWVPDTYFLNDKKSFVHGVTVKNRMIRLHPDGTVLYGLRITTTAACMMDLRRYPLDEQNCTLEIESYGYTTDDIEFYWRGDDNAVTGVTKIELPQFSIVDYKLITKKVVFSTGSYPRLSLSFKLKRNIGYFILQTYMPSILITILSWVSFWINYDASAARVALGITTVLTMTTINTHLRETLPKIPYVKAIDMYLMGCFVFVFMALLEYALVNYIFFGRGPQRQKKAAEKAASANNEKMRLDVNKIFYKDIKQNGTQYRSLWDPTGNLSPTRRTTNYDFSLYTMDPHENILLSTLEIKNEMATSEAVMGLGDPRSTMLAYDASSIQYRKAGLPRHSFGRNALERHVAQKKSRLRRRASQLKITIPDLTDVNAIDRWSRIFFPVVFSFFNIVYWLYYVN
T1 sequence (P18507 40-475): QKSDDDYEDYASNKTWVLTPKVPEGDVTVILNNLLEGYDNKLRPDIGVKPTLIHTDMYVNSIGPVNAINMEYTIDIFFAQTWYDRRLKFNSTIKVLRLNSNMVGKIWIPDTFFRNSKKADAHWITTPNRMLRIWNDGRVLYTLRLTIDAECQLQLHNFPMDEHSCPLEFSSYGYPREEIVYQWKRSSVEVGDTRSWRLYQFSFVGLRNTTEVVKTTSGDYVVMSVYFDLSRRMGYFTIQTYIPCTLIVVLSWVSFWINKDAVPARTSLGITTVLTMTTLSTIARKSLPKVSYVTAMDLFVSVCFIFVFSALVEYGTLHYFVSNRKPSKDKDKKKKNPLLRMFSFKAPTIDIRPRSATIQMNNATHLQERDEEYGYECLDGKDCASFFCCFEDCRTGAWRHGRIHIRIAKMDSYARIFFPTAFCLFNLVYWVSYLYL
T3 sequence (P08684 whole entry): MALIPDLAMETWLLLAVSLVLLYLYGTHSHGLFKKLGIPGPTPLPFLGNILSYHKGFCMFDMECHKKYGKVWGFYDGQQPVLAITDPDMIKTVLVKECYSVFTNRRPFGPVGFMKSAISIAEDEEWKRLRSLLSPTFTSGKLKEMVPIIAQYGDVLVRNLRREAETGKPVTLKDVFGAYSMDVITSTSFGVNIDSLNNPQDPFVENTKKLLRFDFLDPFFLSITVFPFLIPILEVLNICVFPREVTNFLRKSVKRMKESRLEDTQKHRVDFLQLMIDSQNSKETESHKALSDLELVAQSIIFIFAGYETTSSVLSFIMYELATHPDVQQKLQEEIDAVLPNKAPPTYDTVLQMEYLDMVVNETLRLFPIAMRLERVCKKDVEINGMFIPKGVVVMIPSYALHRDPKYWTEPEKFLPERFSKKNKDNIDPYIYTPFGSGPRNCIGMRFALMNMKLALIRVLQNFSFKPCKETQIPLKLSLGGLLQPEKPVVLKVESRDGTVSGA

inhibition at 10 µM ([1]; CHO-K1, 10 μM compound) | EC50 (dopamine D1 receptor) | inhibition at 15 min, 20 μM (CYP3A4) | % GABAA inhibition ([1]; 10 μM compound, CHO-K1 cells) | Compound
6% | 63.1 nM | 70 to 80% |  | C[C@H]1[C@H]2CCC[C@@H]([C@H](O)C(F)(F)F)[C@@H]2CCN1C(=O)Cc1c(Cl)ccc2nnc(Cl)n12 [Example 11, 1-[(1 S,4aR,5R,8aS)-1-methyl-5-[(1 S)-2,2,2-trifluoro-1-hydroxy-ethyl]-3,4,4a,5,6,7,8,8a-octahydro-1H-isoquinolin-2-yl]-2-(3,6-dichloro-[1,2,4]triazolo[4,3-a]pyridin-5-yl)ethanone]
 | 251 nM | 20 to 40% | 7.4% | COc1ccc(C#N)c(CC(=O)N2CC[C@@H]3[C@H](CCC[C@H]3C(C)(O)C(F)(F)F)[C@@H]2C)c1Cl (single isomer, unassigned) [Example 7-A]
